Laboratory results: ChEMBL document CHEMBL1128998, “Chemical synthesis, DNA cleavage and antitumor activity of molecules with (Z)-7-sulfonyl-3-hexene-1,5-diyne functionalities” (Bioorg Med Chem Lett, 1996)
Converted amounts (≈) assume the structure as drawn.

Key:
Type in all cases: functional, cell-based
Conditions in all cases: Homo sapiens
[1] = tested on: KB; assay: Compound was tested in vitro for growth inhibition of KB, oral epidermoid cell line; Range=4-10 ug/ml
[2] = tested on: HepG2; assay: Compound was tested in vitro for growth inhibition of Hep G2, […] cell line.
[3] = tested on: SK-BR-3; assay: Compound was tested in vitro for growth inhibition of SK-BR-3, breast adenocarcinoma cell line; Range=4-10 ug/ml
[4] = tested on: COLO 205; assay: Compound was tested in vitro for growth inhibition of COLO 205, colon cell line; Range=4-10 ug/ml
[5] = tested on: MOLT-4; assay: Compound was tested in vitro for growth inhibition of Molt-4, leukemia cell line.
[6] = tested on: HepG2; assay: Compound was tested in vitro for growth inhibition of Hep G2, […] cell line
[7] = tested on: HepG2; assay: Compound was tested in vitro for growth inhibition of Hep G2, […] cell line; Range=4-10 ug/ml
[8] = tested on: KB; assay: Compound was tested in vitro for growth inhibition of KB, oral epidermoid cell line.
[9] = tested on: COLO 205; assay: Compound was tested in vitro for growth inhibition of COLO 205, colon cell line.
[10] = tested on: SK-BR-3; assay: Compound was tested in vitro for growth inhibition of SK-BR-3, […] cell line.

Row | IC50 [1] | IC50 [2] | IC50 [3] | IC50 [4] | IC50 [5] | IC50 [6] | IC50 [7] | IC50 [8] | IC50 [9] | IC50 [10] | SMILES
1 | 10 µg/mL (≈ 32.2 µM) | > 10 µg/mL | 10 µg/mL (≈ 32.2 µM) | 10 µg/mL (≈ 32.2 µM) | < 4 µg/mL |  |  |  |  |  | O=S(=O)(CC#C/C=C\C#CCO)c1ccc2ccccc2c1
2 | 10 µg/mL (≈ 38.4 µM) |  | 10 µg/mL (≈ 38.4 µM) | 10 µg/mL (≈ 38.4 µM) |  | > 10 µg/mL |  |  |  |  | O=S(=O)(CC#C/C=C\C#CCO)c1ccccc1
3 |  | < 4 µg/mL |  |  |  |  |  |  |  |  | O=S(=O)(CC#Cc1ccccc1C#CCO)c1ccc2ccccc2c1
4 | 10 µg/mL (≈ 34.4 µM) | > 10 µg/mL | 10 µg/mL (≈ 34.4 µM) | 10 µg/mL (≈ 34.4 µM) |  |  |  |  |  |  | COc1ccc(S(=O)(=O)CC#C/C=C\C#CCO)cc1

Second part, the molecule before the results:

Row | SMILES | IC50 [1] | IC50 [2] | IC50 [3] | IC50 [4] | IC50 [5] | IC50 [6] | IC50 [7] | IC50 [8] | IC50 [9] | IC50 [10]
5 | COC(=O)c1ccccc1S(=O)(=O)CC#C/C=C\C#CCO | 10 µg/mL (≈ 31.4 µM) | > 10 µg/mL | 10 µg/mL (≈ 31.4 µM) | 10 µg/mL (≈ 31.4 µM) |  |  |  |  |  | 
6 | O=S(=O)(CC#Cc1cc2ccccc2cc1C#CCO)c1ccccc1 |  |  | 10 µg/mL (≈ 27.7 µM) | 10 µg/mL (≈ 27.7 µM) | < 4 µg/mL |  | 10 µg/mL (≈ 27.7 µM) | 10 µg/mL (≈ 27.7 µM) |  | 
7 | O=S(=O)(CC#Cc1ccccc1C#CCO)c1ccccc1 |  |  |  |  | < 4 µg/mL |  | 10 µg/mL (≈ 32.2 µM) | 10 µg/mL (≈ 32.2 µM) | < 4 µg/mL | < 4 µg/mL
